Results as given in BindingDB's records for doi:10.1016/0028-3908(94)90059-0 (University of Alberta, 1994).
“And” between values parts separate entries of the source, which are not always exact repeats. Equal entries are not always repeated.

What was measured:
[1] = target: T1, 5-hydroxytryptamine receptor 2C (Rattus norvegicus, UniProt P08909)
T1 sequence (P08909 whole entry): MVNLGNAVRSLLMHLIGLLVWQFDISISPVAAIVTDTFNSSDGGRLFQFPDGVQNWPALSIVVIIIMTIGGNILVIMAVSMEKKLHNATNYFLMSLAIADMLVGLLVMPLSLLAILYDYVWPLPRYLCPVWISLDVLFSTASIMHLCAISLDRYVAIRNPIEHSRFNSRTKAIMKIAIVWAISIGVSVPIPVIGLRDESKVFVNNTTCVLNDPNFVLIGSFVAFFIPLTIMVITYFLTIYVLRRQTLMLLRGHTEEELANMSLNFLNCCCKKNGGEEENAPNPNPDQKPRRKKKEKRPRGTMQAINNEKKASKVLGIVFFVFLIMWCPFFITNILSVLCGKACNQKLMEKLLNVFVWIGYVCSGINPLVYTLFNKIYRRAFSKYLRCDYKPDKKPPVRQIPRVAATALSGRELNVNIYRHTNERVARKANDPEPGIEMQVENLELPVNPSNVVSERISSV

[2] = target: 5-hydroxytryptamine receptor 2B (Mus musculus, UniProt Q02152)
[3] = target: T2, 5-hydroxytryptamine receptor 1F (Homo sapiens, UniProt P30939)
T2 sequence (P30939 whole entry): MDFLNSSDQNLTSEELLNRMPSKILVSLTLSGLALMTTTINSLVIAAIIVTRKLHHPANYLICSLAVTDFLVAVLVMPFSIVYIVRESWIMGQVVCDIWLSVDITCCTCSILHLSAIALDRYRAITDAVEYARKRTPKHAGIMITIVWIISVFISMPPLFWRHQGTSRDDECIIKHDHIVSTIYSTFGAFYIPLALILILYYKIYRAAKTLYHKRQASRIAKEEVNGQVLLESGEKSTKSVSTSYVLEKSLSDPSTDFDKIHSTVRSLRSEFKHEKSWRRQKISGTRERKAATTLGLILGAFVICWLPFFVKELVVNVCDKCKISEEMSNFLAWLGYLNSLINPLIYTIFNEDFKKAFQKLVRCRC

[4] = target: 5-hydroxytryptamine receptor 2B (Rattus norvegicus, UniProt P30994)
[5] = target: 5-hydroxytryptamine receptor 1E (Homo sapiens, UniProt P28566)
[6] = target: 5-hydroxytryptamine receptor 1B (Mus musculus, UniProt P28334)
[7] = target: 5-hydroxytryptamine receptor 7 (Mus musculus, UniProt P32304)
[8] = target: 5-hydroxytryptamine receptor 1D (Rattus norvegicus, UniProt P28565)
[9] = target: T3, 5-hydroxytryptamine receptor 1F (Mus musculus, UniProt Q02284)
T3 sequence (Q02284 whole entry): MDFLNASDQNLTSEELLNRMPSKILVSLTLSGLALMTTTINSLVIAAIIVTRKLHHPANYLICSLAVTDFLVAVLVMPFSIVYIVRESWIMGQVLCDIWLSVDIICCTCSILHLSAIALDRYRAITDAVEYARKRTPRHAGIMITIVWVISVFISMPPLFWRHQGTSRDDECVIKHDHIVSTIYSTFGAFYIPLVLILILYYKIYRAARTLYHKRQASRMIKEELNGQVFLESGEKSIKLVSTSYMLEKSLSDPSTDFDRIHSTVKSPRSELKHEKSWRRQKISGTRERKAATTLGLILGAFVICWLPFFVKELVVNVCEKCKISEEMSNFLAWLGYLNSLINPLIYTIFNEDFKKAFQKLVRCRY

[10] = target: T4, 5-hydroxytryptamine receptor 1F (Rattus norvegicus, UniProt P30940)
T4 sequence (P30940 whole entry): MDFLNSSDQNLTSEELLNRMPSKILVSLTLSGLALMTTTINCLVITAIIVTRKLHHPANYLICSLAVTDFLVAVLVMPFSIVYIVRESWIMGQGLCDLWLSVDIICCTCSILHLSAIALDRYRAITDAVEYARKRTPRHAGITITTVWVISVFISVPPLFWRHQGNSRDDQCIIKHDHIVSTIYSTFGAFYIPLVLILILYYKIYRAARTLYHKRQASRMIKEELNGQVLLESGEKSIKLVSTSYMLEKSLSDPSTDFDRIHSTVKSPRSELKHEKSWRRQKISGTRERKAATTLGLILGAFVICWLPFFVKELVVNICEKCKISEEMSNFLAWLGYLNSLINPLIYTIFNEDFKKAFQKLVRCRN

[11] = target: 5-hydroxytryptamine receptor 4 (Cavia porcellus, UniProt O70528)
[12] = target: 5-hydroxytryptamine receptor 5A (Mus musculus, UniProt P30966)
[13] = target: 5-hydroxytryptamine receptor 5A (Rattus norvegicus, UniProt P35364)
[14] = target: 5-hydroxytryptamine receptor 1B (Rattus norvegicus, UniProt P28564)
[15] = target: 5-hydroxytryptamine receptor 1D (Canis lupus familiaris, UniProt P11614)
[16] = target: 5-hydroxytryptamine receptor 5B (Rattus norvegicus, UniProt P35365)
[17] = target: T5, 5-hydroxytryptamine receptor 3A (Mus musculus, UniProt P23979)
T5 sequence (P23979 whole entry): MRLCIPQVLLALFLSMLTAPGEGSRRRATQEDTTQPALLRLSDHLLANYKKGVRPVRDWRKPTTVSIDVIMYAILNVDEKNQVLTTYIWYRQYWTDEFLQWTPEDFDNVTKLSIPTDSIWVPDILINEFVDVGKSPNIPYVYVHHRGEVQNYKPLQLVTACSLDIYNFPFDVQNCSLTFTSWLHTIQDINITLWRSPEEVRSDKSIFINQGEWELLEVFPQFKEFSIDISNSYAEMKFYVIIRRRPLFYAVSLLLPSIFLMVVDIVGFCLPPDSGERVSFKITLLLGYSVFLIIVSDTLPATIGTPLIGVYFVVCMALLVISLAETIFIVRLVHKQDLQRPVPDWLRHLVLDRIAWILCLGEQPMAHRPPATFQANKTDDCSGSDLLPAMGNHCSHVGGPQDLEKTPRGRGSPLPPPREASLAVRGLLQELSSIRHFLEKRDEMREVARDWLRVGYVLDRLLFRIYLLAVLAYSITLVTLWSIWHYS

[18] = target: 5-hydroxytryptamine receptor 2A (Rattus norvegicus, UniProt P14842)

5-hydroxytryptamine receptor 5A (Mus musculus, UniProt P30966), sequence (P30966 whole entry): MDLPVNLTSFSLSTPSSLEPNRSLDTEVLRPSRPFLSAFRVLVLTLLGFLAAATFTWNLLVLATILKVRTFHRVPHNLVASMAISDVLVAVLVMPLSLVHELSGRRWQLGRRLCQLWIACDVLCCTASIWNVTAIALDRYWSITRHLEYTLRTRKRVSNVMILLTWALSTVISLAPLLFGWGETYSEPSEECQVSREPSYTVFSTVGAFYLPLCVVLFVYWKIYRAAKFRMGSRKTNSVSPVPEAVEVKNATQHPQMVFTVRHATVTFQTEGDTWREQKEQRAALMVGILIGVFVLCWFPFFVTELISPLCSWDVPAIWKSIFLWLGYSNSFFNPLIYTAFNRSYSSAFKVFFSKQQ
5-hydroxytryptamine receptor 1E, sequence (P28566 whole entry): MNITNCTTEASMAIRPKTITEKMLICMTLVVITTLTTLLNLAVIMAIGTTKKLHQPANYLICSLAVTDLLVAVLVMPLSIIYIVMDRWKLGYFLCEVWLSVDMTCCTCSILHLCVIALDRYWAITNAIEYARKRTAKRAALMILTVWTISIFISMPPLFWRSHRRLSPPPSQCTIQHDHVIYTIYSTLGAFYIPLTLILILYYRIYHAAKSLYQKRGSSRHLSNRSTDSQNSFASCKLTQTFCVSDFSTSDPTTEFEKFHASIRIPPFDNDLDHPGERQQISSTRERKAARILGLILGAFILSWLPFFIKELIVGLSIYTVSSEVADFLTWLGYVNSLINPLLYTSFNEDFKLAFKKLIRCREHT
5-hydroxytryptamine receptor 2B (Mus musculus, UniProt Q02152), sequence (Q02152 whole entry): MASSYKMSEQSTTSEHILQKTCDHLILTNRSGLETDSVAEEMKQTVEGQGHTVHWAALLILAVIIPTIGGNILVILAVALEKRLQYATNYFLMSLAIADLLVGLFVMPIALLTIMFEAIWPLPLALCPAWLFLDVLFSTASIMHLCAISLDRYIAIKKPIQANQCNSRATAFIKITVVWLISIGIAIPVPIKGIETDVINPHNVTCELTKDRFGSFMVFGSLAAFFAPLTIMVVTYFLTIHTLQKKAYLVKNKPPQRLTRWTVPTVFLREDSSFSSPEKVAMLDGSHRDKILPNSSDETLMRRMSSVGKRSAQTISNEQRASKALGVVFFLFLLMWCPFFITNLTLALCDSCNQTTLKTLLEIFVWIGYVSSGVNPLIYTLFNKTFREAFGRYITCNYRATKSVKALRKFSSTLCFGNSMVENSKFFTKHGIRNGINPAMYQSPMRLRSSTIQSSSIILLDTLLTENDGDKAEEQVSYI
5-hydroxytryptamine receptor 7, sequence (P32304 whole entry): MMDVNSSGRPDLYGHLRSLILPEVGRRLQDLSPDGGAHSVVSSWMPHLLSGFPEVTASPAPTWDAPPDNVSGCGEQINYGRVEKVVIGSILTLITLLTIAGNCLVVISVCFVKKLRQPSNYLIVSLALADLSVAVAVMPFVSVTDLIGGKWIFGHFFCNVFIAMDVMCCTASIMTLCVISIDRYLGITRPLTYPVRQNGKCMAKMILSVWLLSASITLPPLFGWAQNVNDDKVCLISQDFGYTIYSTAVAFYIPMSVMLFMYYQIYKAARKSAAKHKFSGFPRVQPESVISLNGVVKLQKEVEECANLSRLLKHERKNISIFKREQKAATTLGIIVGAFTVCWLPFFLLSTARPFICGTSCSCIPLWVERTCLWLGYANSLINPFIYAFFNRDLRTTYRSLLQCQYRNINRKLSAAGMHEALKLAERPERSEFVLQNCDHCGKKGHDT
5-hydroxytryptamine receptor 4, sequence (O70528 whole entry): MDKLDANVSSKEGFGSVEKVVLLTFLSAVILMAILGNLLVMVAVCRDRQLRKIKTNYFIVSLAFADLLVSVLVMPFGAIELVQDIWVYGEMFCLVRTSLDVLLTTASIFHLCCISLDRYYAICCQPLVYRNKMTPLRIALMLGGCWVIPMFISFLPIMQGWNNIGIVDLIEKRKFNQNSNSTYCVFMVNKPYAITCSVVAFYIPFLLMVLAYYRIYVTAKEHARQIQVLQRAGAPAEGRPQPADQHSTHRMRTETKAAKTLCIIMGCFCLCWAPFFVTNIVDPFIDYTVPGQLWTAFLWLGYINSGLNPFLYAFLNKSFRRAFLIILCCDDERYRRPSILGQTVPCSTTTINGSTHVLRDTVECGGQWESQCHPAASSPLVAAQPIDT
5-hydroxytryptamine receptor 1B (Rattus norvegicus, UniProt P28564), sequence (P28564 whole entry): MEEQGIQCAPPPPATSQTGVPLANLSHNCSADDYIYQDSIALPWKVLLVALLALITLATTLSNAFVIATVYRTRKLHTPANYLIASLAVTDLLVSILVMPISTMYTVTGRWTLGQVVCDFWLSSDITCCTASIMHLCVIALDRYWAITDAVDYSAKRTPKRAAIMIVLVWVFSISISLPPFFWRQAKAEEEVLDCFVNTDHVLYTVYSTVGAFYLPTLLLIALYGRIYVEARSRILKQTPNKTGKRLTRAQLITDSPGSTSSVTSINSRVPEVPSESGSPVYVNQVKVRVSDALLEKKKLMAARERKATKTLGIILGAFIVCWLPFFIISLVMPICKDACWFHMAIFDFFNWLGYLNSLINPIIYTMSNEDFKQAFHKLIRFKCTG
5-hydroxytryptamine receptor 5A (Rattus norvegicus, UniProt P35364), sequence (P35364 whole entry): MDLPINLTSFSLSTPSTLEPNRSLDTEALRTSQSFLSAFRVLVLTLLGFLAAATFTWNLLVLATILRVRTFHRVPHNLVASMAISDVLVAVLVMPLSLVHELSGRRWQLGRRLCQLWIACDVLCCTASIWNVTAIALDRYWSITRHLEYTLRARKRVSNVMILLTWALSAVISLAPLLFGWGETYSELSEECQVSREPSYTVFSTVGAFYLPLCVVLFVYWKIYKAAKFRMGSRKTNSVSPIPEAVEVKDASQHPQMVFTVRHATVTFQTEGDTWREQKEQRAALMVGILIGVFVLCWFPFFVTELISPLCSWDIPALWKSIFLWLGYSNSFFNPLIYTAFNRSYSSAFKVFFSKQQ
5-hydroxytryptamine receptor 1B (Mus musculus, UniProt P28334), sequence (P28334 whole entry): as the sequence (P28564 whole entry) above, with T15A, A23T, D33G, D152E, V192M, V270A, E272D, T385A counted along it
5-hydroxytryptamine receptor 1D (Canis lupus familiaris, UniProt P11614), sequence (P11614 whole entry): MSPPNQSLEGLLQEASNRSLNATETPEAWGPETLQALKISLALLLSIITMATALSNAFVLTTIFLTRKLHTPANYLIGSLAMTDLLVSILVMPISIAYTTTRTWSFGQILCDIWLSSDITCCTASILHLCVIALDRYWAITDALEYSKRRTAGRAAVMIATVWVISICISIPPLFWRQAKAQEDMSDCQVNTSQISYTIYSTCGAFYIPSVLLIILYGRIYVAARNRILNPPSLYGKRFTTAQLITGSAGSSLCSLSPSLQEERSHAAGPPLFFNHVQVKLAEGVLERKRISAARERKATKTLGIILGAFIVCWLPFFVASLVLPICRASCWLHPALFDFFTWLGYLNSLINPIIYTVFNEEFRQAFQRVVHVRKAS
5-hydroxytryptamine receptor 5B, sequence (P35365 whole entry): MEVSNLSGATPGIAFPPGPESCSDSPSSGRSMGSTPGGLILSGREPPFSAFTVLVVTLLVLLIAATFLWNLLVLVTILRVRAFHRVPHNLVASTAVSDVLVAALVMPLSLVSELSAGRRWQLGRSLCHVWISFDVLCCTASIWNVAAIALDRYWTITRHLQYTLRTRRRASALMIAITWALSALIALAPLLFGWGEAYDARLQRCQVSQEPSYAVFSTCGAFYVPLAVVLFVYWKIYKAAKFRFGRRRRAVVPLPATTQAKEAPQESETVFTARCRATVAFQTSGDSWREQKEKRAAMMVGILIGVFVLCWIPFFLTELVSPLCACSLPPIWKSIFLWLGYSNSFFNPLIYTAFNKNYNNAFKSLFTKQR
5-hydroxytryptamine receptor 2B (Rattus norvegicus, UniProt P30994), sequence (P30994 whole entry): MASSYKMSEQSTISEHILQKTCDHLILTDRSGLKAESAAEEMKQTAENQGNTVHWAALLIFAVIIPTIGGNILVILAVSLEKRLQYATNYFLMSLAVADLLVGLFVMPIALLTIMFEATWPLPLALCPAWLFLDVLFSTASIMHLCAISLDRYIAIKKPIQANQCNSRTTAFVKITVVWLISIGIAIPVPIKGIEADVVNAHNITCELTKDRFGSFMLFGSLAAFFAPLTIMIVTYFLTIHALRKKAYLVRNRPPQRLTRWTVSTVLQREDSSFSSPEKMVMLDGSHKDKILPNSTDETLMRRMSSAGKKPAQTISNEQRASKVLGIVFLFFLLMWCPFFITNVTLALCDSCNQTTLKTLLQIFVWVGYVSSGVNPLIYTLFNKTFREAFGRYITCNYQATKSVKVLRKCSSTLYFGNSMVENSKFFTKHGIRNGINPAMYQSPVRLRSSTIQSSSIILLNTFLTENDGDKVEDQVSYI
5-hydroxytryptamine receptor 1D (Rattus norvegicus, UniProt P28565), sequence (P28565 whole entry): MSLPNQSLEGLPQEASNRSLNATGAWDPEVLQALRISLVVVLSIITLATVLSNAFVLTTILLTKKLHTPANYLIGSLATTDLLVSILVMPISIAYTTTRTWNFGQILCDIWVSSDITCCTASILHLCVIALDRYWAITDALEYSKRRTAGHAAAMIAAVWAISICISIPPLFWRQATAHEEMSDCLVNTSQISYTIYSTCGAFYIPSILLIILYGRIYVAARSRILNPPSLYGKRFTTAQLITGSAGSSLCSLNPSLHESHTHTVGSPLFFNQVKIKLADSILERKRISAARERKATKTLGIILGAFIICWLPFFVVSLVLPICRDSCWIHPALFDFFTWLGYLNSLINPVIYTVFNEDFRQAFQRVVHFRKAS

SMILES | Ki [1] | Ki [2] [nM] | Ki [5] | Ki [7] [nM] | Ki [9] [nM] | Ki [10] [nM] | Ki [11] | Ki [12] | Ki [13] [nM] | also measured
Clc1cncc(N2CCNCC2)n1 [L-630,571] | 339 nM | – | – | – | – | – | – | – | – | –
O=C(c1ccc(F)cc1)C1CCN(CCn2c(=O)[nH]c3ccccc3c2=O)CC1 [3-(2-{4-[(4-fluorophenyl)carbonyl]piperidin-1-yl}ethyl)-1,2,3,4-tetrahydroquinazoline-2,4-dione] | 47.9 nM and 20.9 nM | 204 | – | – | – | – | – | – | – | Ki [3]: 1.25 nM; Ki [4]: 3550 nM
NCCc1c[nH]c2ccc(C(N)=O)cc12 [[3H]-5-carboxamidotryptamine] | – | – | 7080 nM and 3310 nM | 1 | 3160 | 2450 | > 10000 nM | 15.8 nM and 12.6 nM | 12.6 | Ki [6]: 10 nM; Ki [8]: 0.37 nM; Ki [4]: 151 nM
CN1C[C@H](C(=O)N[C@]2(C)O[C@@]3(O)[C@@H]4CCCN4C(=O)[C@H](Cc4ccccc4)N3C2=O)C=C2c3cccc4[nH]cc(c34)C[C@H]21 [12'-hydroxy-2'-methyl-5'alpha-(phenylmethyl)ergotaman-3',6',18-trione] | – | – | 575 nM and 537 nM | 50.1 | 50.1 | 52.5 | – | 6.3 nM | – | Ki [14]: 0.03 nM; Ki [15]: 1.94 nM; Ki [8]: 0.07 nM; Ki [16]: 15.8 nM
CC(C)n1c(=O)n(C(=O)NC2CC3CCC(C2)N3C)c2ccccc21 (stereo not given) [BIMU 8] | – | – | – | – | – | – | 25.1 nM and 12.6 nM | – | – | –
NCCc1c[nH]c2ccc(O)cc12 [[3H]-5-HT] | – | – | – | 5.01 | 126 | 67.6 | – | – | 240 | Ki [6]: 39.8 nM; Ki [15]: 15.8 nM
CC[C@@H](CO)NC(=O)[C@@H]1C=C2c3cccc4c3c(cn4C)C[C@H]2N(C)C1 | – | 12.6 | 324 nM and 219 nM | 12.6 | 6.3 | 13.5 | – | 79.4 nM | 195 | Ki [17]: > 10000 nM; Ki [14]: 1820 nM and 437 nM; Ki [16]: 1000 nM
COc1cc(N)c(Cl)cc1C(=O)N[C@H]1CN2CCC1CC2 [4-Amino-N-(R)-1-aza-bicyclo[2.2.2]oct-3-yl-5-chloro-2-methoxy-benzamide] | – | – | – | – | – | – | 251 nM and 200 nM | – | – | –
CN(C)CCCSc1ccccc1NC(=O)/C=C/c1ccccc1 [CINANSERIN] | – | – | – | – | – | – | – | – | – | Ki [18]: 6.02 nM
c1ccc2nc(N3CCNCC3)ccc2c1 [2-Piperazin-1-yl-quinoline (Quipazine)] | 257 nM | 6610 | – | – | – | – | – | – | – | –
